Measured values as given in patent publication US20170319570A1, “Treatment of Multiple Sclerosis With Combination of Laquinimod and Dimethyl Fumarate” (Teva Pharmaceutical Industries, Ltd., priority 2012, published 2017).

Assays:
[1] = test system: RRMS patients; conditions: Phase 2B trial; cited from earlier work
[2] = test system: MOG peptide induced EAE; conditions: cited from earlier work
[3] = test system: MOG-induced EAE; assay: MOG-induced EAE, laquinimod alone or with add on DMF (Example 1A); format: in vivo, mouse; conditions: oral QD
[4] = test system: MOG induced EAE; assay: MOG-induced EAE, laquinimod in combination with DMF (Example 1B); format: in vivo, mouse; conditions: Day 1 to 30, dead or moribund/total
[5] = in vivo; cited from earlier work

| SMILES | annualized relapse rate [1] | new gadolinium enhancing lesions, T1 and T2 lesions [1] | plasma levels of IL-10 ([2]; MOG peptide induced EAE) | glial inflammation ([2]; during MOG peptide induced EAE) | effectiveness on disease severity [3] | Mortality ([4]; Group 2: laquinimod 5 mg/kg/day gavage qd) | Mortality ([4]; Group 3: laquinimod 10 mg/kg/day gavage qd) | Mortality ([4]; Group 4: laquinimod 25 mg/kg/day gavage qd) | oral bioavailability [5] | effectiveness on disease severity ([3]; 0.06 mg/kg laquinimod alone) |
| --- | --- | --- | --- | --- | --- | --- | --- | --- | --- | --- |
| COC(=O)/C=C/C(=O)OC [DMF, Dimethyl (E)-but-2-Enedioate] | non-significant decrease | significant decreases | increased | reduced | moderately effective |  |  |  |  |  |
| CCN(C(=O)c1c(O)c2c(Cl)cccc2n(C)c1=O)c1ccccc1 [Laquinimod] |  |  |  |  |  | 0/15 | 0/15 | 0/15 | high | moderately effective |
